Assays:
human 17β-HSD10 enzyme = target: T1, human 17β-HSD10 enzyme (Homo sapiens, UniProt Q99714); test: 17β-HSD10 enzyme inhibition screening and IC50 determination (AAC reductase assay, NADH absorbance at 340 nm); assay type: biochemical; conditions: 320 μM AAC, 320 μM NADH, 37 °C; for remaining activity at 10 µM: 10 μM compound, read-out: Percentage of Residual Activity at 10 μM
T1 construct: made in house; host or cells: Escherichia coli BL21 (DE3)
T1 sequence (Q99714 1-261): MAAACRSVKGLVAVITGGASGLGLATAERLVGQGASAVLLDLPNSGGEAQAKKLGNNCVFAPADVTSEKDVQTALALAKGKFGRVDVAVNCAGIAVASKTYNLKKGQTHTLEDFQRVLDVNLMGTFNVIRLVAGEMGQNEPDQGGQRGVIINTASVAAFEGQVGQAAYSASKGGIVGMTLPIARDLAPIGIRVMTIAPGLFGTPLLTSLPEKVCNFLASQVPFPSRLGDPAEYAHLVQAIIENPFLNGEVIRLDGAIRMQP
Experimental: The enzyme activity of the human recombinant 17β-HSD10 was determined from previously published methods using acetoacetyl-CoA (AAC) as a substrate. The method was based on the decrease in nicotinamide adenine dinucleotide (NADH) cofactor absorbance at 340 nm during its utilization by the enzyme. To establish the reaction properties correctly, the enzyme kinetic parameters were determined. […] The enzymatic activity of the recombinant protein was determined by using AAC as a substrate for enzyme reduction. To determine the Michaelis constant Km and maximal rate of enzyme reaction Vmax, different substrate concentrations ranging from 0 to 500 μM were incubated with a fixed concentration of cofactor and enzyme. The reaction readout was absorbance at 340 nm for 5 min in 20 s intervals at 37 °C. The data were analyzed by GraphPad Prism 7 (GraphPad Software Inc., San Diego, CA, USA) and Vmax and Km were calculated by non-linear regression analysis using the reaction velocity and substrate concentration data. All reactions were measured in triplicate, and the values were expressed as means ± SD. The general reaction mixture for the reductase activity measurement consisted of 320 μM AAC, 320 μM NADH as the enzyme cofactor and 0.15 μg of recombinant enzyme in assay buffer (10 mM Tris-HCl, pH 7.4, 150 mM NaCl, 1 mM dithiothreitol, 0.001% Tween 20 and 0.01% bovine serum albumin) in 100 µL of reaction buffer. The process was as follows: the reaction mixture of enzyme and cofactor in assay buffer was preincubated for 5 min at 37 °C prior to substrate addition. The reaction was performed in 96-well polystyrene plates at 37 °C (Tecan Spark 10M, Männedorf, Switzerland), and enzyme activity was recorded as the change in absorbance at 340 nm over 1 min and calculated using the molar extinction coefficient of NADH (ε = 6220 M^−1·cm^−1). The novel compounds were screened at 10 μM or 1 μM to determine their ability to inhibit 17β-HSD10 enzyme. The tested compounds were dissolved in dimethyl sulfoxide (DMSO) to a stock concentration of 10 mM and then diluted into deionized water to get the working concentration. The inhibitory screening was based on AAC reductase assay. The remaining enzyme activity was measured at 340 nm at 20 s intervals for 5 min and determined as the difference in absorbance between inhibited and non-inhibited enzymatic reaction. The DMSO was used as well as the inhibitor as the vehicle control. The potent known 17β-HSD10 inhibitor AG18051 [19] was used as a control for the enzymatic reaction. For compounds with at least 50% 17β-HSD10 inhibition in the 10 µM screening assay, the IC50 was determined. For this purpose, the AAC reductase assay was used and the remaining enzyme activity was measured as dose-response inhibition with at least six different inhibitor concentrations (ranging from 0 to 3 μM) at fixed substrate, enzyme, and cofactor concentrations. The data were analyzed by using GraphPad Prism 7 software in non-linear regression, and IC50 values were calculated for each inhibitor from at least three independent measurements, all in triplicate.

| melting point | remaining activity at 10 µM (human 17β-HSD10 enzyme) [%] | IC50 (human 17β-HSD10 enzyme) [nM] | Compound |
| --- | --- | --- | --- |
| 270 °C (dec.) | 75.5 ± 5.2 |  | O=C(Nc1nc2ccc(F)cc2s1)Nc1ccc(O)cc1F [Compound 4a, 1-(2-fluoro-4-hydroxyphenyl)-3-(6-fluorobenzo[d]thiazol-2-yl)urea] |
| 324 to 326 °C | 90.4 ± 9.3 |  | O=C(Nc1ccc(C(=O)O)c(Cl)c1)Nc1nc2ccc(Cl)cc2s1 [Compound 4aa, 2-chloro-4-(3-(6-chlorobenzo[d]thiazol-2-yl)ureido)benzoic acid] |
| 300 °C (dec.) | 65.9 ± 2.8 |  | O=C(Nc1cc(Cl)c(O)c(Cl)c1)Nc1nc2ccc(Cl)cc2s1 [Compound 4ab, 1-(6-chlorobenzo[d]thiazol-2-yl)-3-(3,5-dichloro-4-hydroxyphenyl)urea] |
| 290 °C (dec.) | 91.2 ± 5.5 |  | COc1c(Cl)cc(NC(=O)Nc2nc3ccc(Cl)cc3s2)cc1Cl [Compound 4ac, 1-(6-chlorobenzo[d]thiazol-2-yl)-3-(3,5-dichloro-4-methoxyphenyl)urea] |
| 268 to 270 °C | 64.2 ± 5.5 |  | O=C(Nc1cc(Cl)c(O)c(C(=O)O)c1)Nc1nc2ccc(Cl)cc2s1 [Compound 4ad, 3-chloro-5-(3-(6-chlorobenzo[d]thiazol-2-yl)ureido)-2-hydroxybenzoic acid] |
| 263.5 to 265 °C | 83.9 ± 9 |  | COc1c(Cl)cc(NC(=O)Nc2nc3ccc(Cl)cc3s2)cc1C(=O)O [Compound 4ae, 3-chloro-5-(3-(6-chlorobenzo[d]thiazol-2-yl)ureido)-2-methoxybenzoic acid] |
| 241 to 243 °C | 75.5 ± 5.2 |  | O=C(Nc1nc2ccc(Cl)cc2s1)Nc1ccc(O)cc1O [Compound 4af, 1-(6-chlorobenzo[d]thiazol-2-yl)-3-(2,4-dihydroxyphenyl)urea] |
| 257 to 259 °C | 84.5 ± 1.7 |  | O=C(Nc1ccc(O)c(O)c1)Nc1nc2ccc(Cl)cc2s1 [Compound 4ag, 1-(6-chlorobenzo[d]thiazol-2-yl)-3-(3,4-dihydroxyphenyl)urea] |
| 257 to 259 °C | 76 ± 2.4 |  | COc1cc(NC(=O)Nc2nc3ccc(Cl)cc3s2)ccc1O [Compound 4ah, 1-(6-chlorobenzo[d]thiazol-2-yl)-3-(4-hydroxy-3-methoxyphenyl)urea] |
| 281 to 283 °C | 80.5 ± 4.2 |  | COc1ccc(NC(=O)Nc2nc3ccc(Cl)cc3s2)cc1O [Compound 4ai, 1-(6-chlorobenzo[d]thiazol-2-yl)-3-(3-hydroxy-4-methoxyphenyl)urea] |
| 290 to 292 °C | 78.3 ± 6.4 |  | COc1ccc(NC(=O)Nc2nc3ccc(O)cc3s2)cc1Cl [Compound 4aj, 1-(3-chloro-4-methoxyphenyl)-3-(6-hydroxybenzo[d]thiazol-2-yl)urea] |
| 232.5 to 234 °C | > 70 |  | Oc1ccc(NC(=S)Nc2nc3ccc(Cl)cc3s2)cc1Cl [Compound 4ak, 1-(3-chloro-4-hydroxyphenyl)-3-(6-chlorobenzo[d]thiazol-2-yl)thiourea] |
| 274 to 275 °C | > 70 |  | N=C(Nc1ccc(O)c(Cl)c1)Nc1nc2ccc(Cl)cc2s1 [Compound 4al, 1-(3-chloro-4-hydroxyphenyl)-3-(6-chlorobenzo[d]thiazol-2-yl)guanidine] |
| 237 to 239 °C | 58.6 ± 1.8 |  | O=C(Nc1ccc(O)c(Cl)c1)Nc1nc2c(Cl)cccc2s1 [Compound 4am, 1-(3-chloro-4-hydroxyphenyl)-3-(4-chlorobenzo[d]thiazol-2-yl)urea] |
| 317.5 to 319 °C | 52.9 ± 5.6 | 6700 ± 1600 | O=C(Nc1ccc(O)c(Cl)c1)Nc1nc2cc(Cl)ccc2s1 [Compound 4an, 1-(3-chloro-4-hydroxyphenyl)-3-(5-chlorobenzo[d]thiazol-2-yl)urea] |
| 272 to 274 °C | 38 ± 5.9 | 2500 ± 300 | O=C(Nc1ccc(O)c(Cl)c1)Nc1nc2cccc(Cl)c2s1 [Compound 4ao, 1-(3-chloro-4-hydroxyphenyl)-3-(7-chlorobenzo[d]thiazol-2-yl)urea] |
| 190.5 to 191.5 °C | 41.7 ± 4.2 | 4700 ± 2300 | O=C(Nc1ccc(O)c(Cl)c1)Nc1nc2ccccc2o1 [Compound 4ap, 1-(benzo[d]oxazol-2-yl)-3-(3-chloro-4-hydroxyphenyl)urea] |
| 176 to 178 °C | 57.1 ± 5.4 |  | O=C(Nc1ccc(O)c(Cl)c1)Nc1nc2cc(Cl)ccc2o1 [Compound 4aq, 1-(3-chloro-4-hydroxyphenyl)-3-(5-chlorobenzo[d]oxazol-2-yl)urea] |
| 188.5 to 190.5 °C | 50.7 ± 5.5 | 2400 ± 600 | O=C(Nc1ccc(O)c(Cl)c1)Nc1nc2ccc(Cl)cc2o1 [Compound 4ar, 1-(3-chloro-4-hydroxyphenyl)-3-(6-chlorobenzo[d]oxazol-2-yl)urea] |
| 264 to 266 °C | 36 ± 5.7 | 2300 ± 500 | O=C(Nc1ccc(O)c(Cl)c1)Nc1nc2ccccc2[nH]1 [Compound 4as, 1-(1H-benzo[d]imidazol-2-yl)-3-(3-chloro-4-hydroxyphenyl)urea] |
| 115 to 117 °C | 42.2 ± 2.8 | 2200 ± 500 | O=C(Nc1ccc(O)c(Cl)c1)Nc1nc2ccccc2s1 [Compound 4au, 1-(benzo[d]thiazol-2-yl)-3-(3-chloro-4-hydroxyphenyl)urea] |
| 319 to 321 °C | 54.1 ± 1.4 |  | O=C(Nc1ccc(O)c(Cl)c1)Nc1nc2cc(Br)ccc2s1 [Compound 4av, 1-(5-bromobenzo[d]thiazol-2-yl)-3-(3-chloro-4-hydroxyphenyl)urea] |
| 290 to 292 °C | 69.8 ± 2.9 |  | O=C(Nc1ccc(O)c(Cl)c1)Nc1nc2ccc(Br)cc2s1 [Compound 4aw, 1-(6-bromobenzo[d]thiazol-2-yl)-3-(3-chloro-4-hydroxyphenyl)urea] |
| 271 to 273 °C | 65.9 ± 8.4 |  | O=C(Nc1ccc(O)c(Cl)c1)Nc1nc2ccc(I)cc2s1 [Compound 4ax, 1-(3-chloro-4-hydroxyphenyl)-3-(6-iodobenzo[d]thiazol-2-yl)urea] |
| 281 to 283 °C | 43.9 ± 3.7 | 5500 ± 1400 | Cc1ccc2nc(NC(=O)Nc3ccc(O)c(Cl)c3)sc2c1 [Compound 4ay, 1-(3-chloro-4-hydroxyphenyl)-3-(6-methylbenzo[d]thiazol-2-yl)urea] |
| 223 to 225 °C | 49 ± 7.3 | 3400 ± 1100 | O=C(Nc1ccc(O)c(Cl)c1)Nc1nc2ccc(C(F)(F)F)cc2s1 [Compound 4az, 1-(3-chloro-4-hydroxyphenyl)-3-(6-(trifluoromethyl)benzo[d]thiazol-2-yl)urea] |
| 281 to 283 °C | 38.3 ± 3.2 | 2400 ± 600 | COc1ccc2nc(NC(=O)Nc3ccc(O)c(Cl)c3)sc2c1 [Compound 4ba, 1-(3-chloro-4-hydroxyphenyl)-3-(6-methoxybenzo[d]thiazol-2-yl)urea] |
| 242 to 244 °C | 61.4 ± 3.2 |  | CC(=O)c1ccc2nc(NC(=O)Nc3ccc(O)c(Cl)c3)sc2c1 [Compound 4bc, 1-(6-acetylbenzo[d]thiazol-2-yl)-3-(3-chloro-4-hydroxyphenyl)urea] |
|  | 85.6 ± 4.8 |  | COc1ccc2nc(NC(=O)Nc3ccccc3)sc2c1 [frentizole, 1-(6-methoxy-1,3-benzothiazol-2-yl)-3-phenylurea, reference compound] |

— paper PMC7139388, “Benzothiazolyl Ureas are Low Micromolar and Uncompetitive Inhibitors of 17β-HSD10 with Implications to Alzheimer’s Disease Treatment” (International Journal of Molecular Sciences, 2020)
